Data on 20 compounds can be found in patent US20240197596A1, “COMPOUNDS USEFUL AS HAIR DYES” (National University of Singapore, priority 2021, published 2024).

In brackets after ≈: the same amount, converted by molar mass.

The test system of one data set is CD86. Kind of data set: h-CLAT assay, CD86 expression by flow cytometry. The data set is classed as cell-based, human. The note with it: for EC150 for CD86 (lowest concentration inducing % RFI of 150): THP-1 cells, 24 h; for RFI for CD86: at CV75, 24 h. How it is done: (§1) The assay was conducted as per the literature (Toxicol In Vitro, 2006, 20, 767-73). THP-1 cells were cultured in 24-well plates (1×10^6 cells/1 mL/well) with various concentrations of each chemical (N1-N13), +ve control (DNCB), −ve control for 24 h.
(§2) THP-1 cells were cultured in 24-well plates (1×10^6 cells/mL/well) and treated with recommended concentrations of each chemical (N1-N13), positive control (DNCB) or negative control (SLS) for 24 h. THP-1 cells were cultured and treated with 8 doses of N1-N13 based on the CV75 namely, 1.2×CV75, 1×CV75, 1/1.2×CV75, 1/1.2^2×CV75, 1/1.23×CV75, 1/1.24×CV75, 1/1.2^5×CV75 and 1/1.2^6×CV75. After 24 h, cells were transferred to 1.5 mL of microtubes and centrifuged at 450 g, 5 min, 4° C. Supernatant was discarded and cells were washed with 1 mL of FACS buffer (PBS+FBS+HEPES). The cells were centrifuged at 450 g, 5 min, 4° C. 50 μL of Fc block (0.01% of Globlins Cohn fraction II, III) was added and incubated for 10 min at 4° C. The cells were stained with 20 μL APC CD54 (Mouse IgG1, K, BD Biosciences, San Diego, CA, USA), 20 μL FITC CD86 (Mouse IgG1, K, BD Biosciences, San Diego, CA, USA) or their respective isotype controls and incubated for 15 min at room temperature in dark. After incubation, the antibodies were diluted with 200 μl FACS buffer. The cells were washed with 1 mL FACS buffer twice. Further, 200 μL Propidium iodide (PI, 0.625 μg/mL) prepared in FACS buffer was added before the flow cytometry analysis. Flow cytometric analysis was performed with BD LSR Fortessa™ (Becton Dickinson, San Jose, CA, USA) In total, 10,000 living cells were analysed, and data were processed using Flowjo software (v10.6, Ashland, OR, USA). The test concentration providing a cell viability of 75% (CV75) was derived from the dose response curve and was calculated by log-linear interpolation.
(§3) Geometric mean fluorescence intensity (MFI) was measured for CD54^+ and CD86^+ cells separately and percentage relative fluorescence intensity (% RFI), reflective of CD86 and CD54 relative expression was calculated as described below. RFI was not calculated if cell viability fell below 50%.
(§4) All chemicals were tested in three independent experiments. If in two of three independent experiments at any dose exceeded 150% RFI for CD86, or 200% RFI for CD54, the chemicals could be identified as a sensitizer. Otherwise it is identified as a non-sensitizer.

In a further data set the test system is CD54. The experiment in a line: h-CLAT assay, CD54 expression by flow cytometry. Format: cell-based, human. The note with it: for EC200 for CD54 (lowest concentration inducing % RFI of 200): THP-1 cells, 24 h; for RFI for CD54: at CV75, 24 h. How it is done:
as §1, §2, §3, §4

For data set [1], the system named is THP-1 cells. The experiment in a line: MTT assay on THP-1 cells (CV75). Format: cell-based, human. As for the experimental part:
THP-1 (human acute monocytic leukaemia cell line) cell suspension was adjusted to 1×10^5 cells per well and seeded in 96-well plates. The plate was incubated at 37° C. with 5% CO2. After 24 h, 10 mM stock solutions of N1-N13 were prepared in autoclaved milli-Q water. A series of concentrations diluted in media was prepared and added to the wells. Each concentration was performed in 6-replicates, and seeded wells with only media and no compound were used as controls while wells with only media were used as blanks. The plate was incubated for 24 h, after which 100 μL of MTT reagent was added and the plate was further incubated for 3 h before adding 100 μL of DMSO. Subsequently, the plate was shaken for 20 min, and then absorbance at 570 nm was determined using a Bio-Tek plate reader. Percentage cell viability was calculated and CV75 values were determined.
On the technique in general: Tetrazolium assays rely on reduction of a dye to a coloured formazan, in cell work by metabolically active cells.

A short description of data set [2]: Thermodynamic solubility assay (modified shake flask, LC-MS/MS). The note with it: for solubility at 24 h: 25 °C, pH 7, water, thermodynamic from solid. How it is done:
The aqueous solubilities (pH=7) of these compounds were measured using the modified shake flask method and LC-MS/MS. Each hair dye was added into a 2 mL glass vial containing Milli-Q water (1 mL) to form the precipitates at 25° C. Then the mixture was subjected to a solubility-equilibrium stage. The vials were shaken at 300 rpm at 25° C. for 24 h. The precipitate was separated by centrifugation at 23,000 g for 20 min. Subsequently, 0.5 mL of supernatant was transferred into a 1 mL Eppendorf tube, and it was centrifuged again as mentioned above. The supernatant was then used for LC-MS/MS analysis.
The mass spectrometric analysis was performed by use of a AB SCIEX QTRAP 5500 tandem mass spectrometry (MS/MS) system (AB SCIEX, Framingham, MA, USA) operating in triple quadrupole positive mode (ESI+) equipped with an AB Sciex Turbo Ion Spray interface. Acquisition and analysis of data were performed with Analyst software ver. 1.4.2 (Applied Biosystems) which performed all chromatographic peak integration. For each hair dye, a standard curve consisting of four concentrations was established.
Solvent A was composed of 0.1% [v/v] formic acid in Milli-Q water while solvent B was composed of 0.1% [v/v] formic acid in acetonitrile. A mobile phase gradient pumped at 0.6 mL/min was used to elute the hair dyes from the column. The column was equilibrated for 1 min resulting in a total run time of 5 min. The injection volume was 5.0 μL for all derivatives. To prevent compound accumulation on the needle, 50% methanol in ACN was used as needle wash for 30 s per sample.

The test system of a further data set is HaCaT cells. The note with it: data from J Hazard Mat., 2021, 402, 123712; cited from earlier work.
The conditions of data set [3]: data from J Hazard Mat., 2021, 402, 123712, cited from earlier work.
The test system of another data set is IL-1α. The note with it: data from J Hazard Mat., 2021, 402, 123712 (FIG. 6); cited from earlier work.
In a further data set the test system is IL-8. The note with it: data from J Hazard Mat., 2021, 402, 123712 (FIG. 6); cited from earlier work.
For data set [4], the system named is THP-1 cells. The experiment in a line: h-CLAT assay on THP-1 cells: markers against OECD cut-off, prediction, cell viability. The data set is classed as cell-based, human. The note with it: for CD54 and CD86 marker expression against OECD cut-off: 8 doses based on CV75, 24 h. As for the experimental part:
as §1, §2, §3, §4

[5] abbreviates: Milli-Q water, Water Solubility, library of old series (Table 4).
Where [6] appears, read: library of old series (Table 4).

Turning to `O=[N+]([O-])c1ccc(Cl)c([N+](=O)[O-])c1` [DNCB], in the data set with CD86, the “EC150 for CD86 (lowest concentration inducing % RFI of 150)” value came to 1.4 µg/mL and the “RFI for CD86” value worked out at 326%. Further, in the data set with CD54, the “EC200 for CD54 (lowest concentration inducing % RFI of 200)” value amounted to 1.5 µg/mL and the “RFI for CD54” value is 450%. For the same compound, the “CV75 (concentration affording 75% cell viability), 1 × CV75” value in the data set on THP-1 cells [1] (THP-1 cells, 24 h) came to 3.0 µg/mL.
In general, solubility refers to how much of the substance goes into solution per volume. Lower therefore signals a poorly soluble substance. In turn, `CCCCCCNc1ccc(Nc2ccc(N)cc2)cc1OCCCCCC` [PPD7, reference compound] returned a solubility at 24 h in data set [2] (setting [5]) of 5 µg/mL (≈ 13 µM).
As to `Nc1ccc(Nc2ccc(Nc3ccc(Nc4ccc(N)cc4)cc3)cc2)cc1` [PPD8, reference compound], the “Water Solubility” value in data set [2] (setting [6]) is “Insoluble”.
On the same count and under the same terms, the result for `Cc1ccc(CNc2ccc(Nc3ccc(N)cc3)cc2)cc1` [PPD9, reference compound] reads “Insoluble”; that for `Cc1ccc(CNc2ccc(Nc3ccc(Nc4ccc(N)cc4)cc3)cc2)cc1` [PPD10, reference compound], “Insoluble”; that for `Nc1ccc(CNc2ccc(Nc3ccc(NCc4ccc([N+](=O)[O-])cc4)cc3)cc2)cc1` [PPD11, reference compound], “Insoluble”.
`COc1ccc(CNc2ccc(Nc3ccc(NCc4ccc(O)cc4)cc3)cc2)cc1` [PPD12, reference compound]: the “Water Solubility” value in [2] (setting [6]) is on record as “Insoluble”.
The same measure, in the same setting: the result for `Cc1ccc(CNc2ccc(Nc3ccc(NCc4ccc(C)cc4)cc3)cc2)cc1` [PPD13, reference compound] reads “Insoluble”; that for `Oc1ccc(CNc2ccc(Nc3ccc(NCc4ccc(O)cc4)cc3)cc2)cc1` [PPD14, reference compound], “Insoluble”.
Turning to `CCCCCCOC(=O)c1cc(N)ccc1N` [PPD15, reference compound], in [2] (setting [5]), the solubility at 24 h came out at 10 µg/mL (≈ 42.3 µM).
Consider `CCCCCCNc1ccc(N)cc1OCCCCCC` [PPD16, reference compound], for which the “Water Solubility” value in [2] (setting [6]) was “Insoluble”.
In turn, `Nc1ccc(Nc2ccc(N)cc2)cc1` [PPD 1, reference compound] had a solubility at 24 h in data set [2] (setting [5]) of 500 µg/mL (≈ 2510 µM).
Same read-out and setting: the same measure for `Nc1ccc(Nc2ccc(Nc3ccc(N)cc3)cc2)cc1` [PPD 2, reference compound]: 100 µg/mL (≈ 344 µM); for `CCCCC(CC)COc1cc(N)ccc1N` (stereo not drawn) [PPD 3, reference compound]: 80 µg/mL (≈ 338 µM); for `CCCCCCOc1cc(N)ccc1N` [PPD 4, reference compound]: 80 µg/mL (≈ 384 µM).
Regarding `CCCCCCOc1cc(Nc2ccc(N)cc2)ccc1N` [PPD 5, reference compound], the “Water Solubility” value in data set [2] (setting [6]) is reported as “Insoluble”.
`CCCCCCOC(=O)c1cc(Nc2ccc(N)cc2)ccc1N` [PPD 6, reference compound] displayed a solubility at 24 h in [2] (setting [5]) of 1 µg/mL (≈ 3.05 µM).
A word on the IC50: it is the point on the concentration scale where inhibition reaches its midpoint. Regarding `Nc1ccc(N)cc1` [PPD, para-phenylenediamine], in the data set with CD86, the “EC150 for CD86 (lowest concentration inducing % RFI of 150)” value worked out at 39.4 µg/mL and the “RFI for CD86” value worked out at 210%. In addition, in the data set on HaCaT cells, the IC50 was 23.4 µM. Moreover, in the data set with CD54, the “EC200 for CD54 (lowest concentration inducing % RFI of 200)” value came out at 35.0 µg/mL and the “RFI for CD54” value was 270%. The “Cumulative amount at 8th hour” value in data set [3] (8 h) is recorded as 5.4 μg/cm^2. In data set [3], the “Permeated through skin into receptor” value is reported as 0.038 % of applied compound dose, the “Recovered in donor compartment” value is on record as 83 % of applied compound dose, the Recovered in skin is on record as 4.3 % of applied compound dose and the “Recovered in skin outside diffusion area” value is listed as 0.0050 % of applied compound dose. Besides, in [3], the “Recovered in skin swabs” value is 0.82 % of applied compound dose; the “Recovered on parafilm and in washes” value is reported as 2.19 % of applied compound dose; the “Total recovery (mean percentage parent compound recovery)” value is given as 93 ± 0.52%. In the data set on IL-1α, the “release of IL-1α” value is given as “higher concentrations”. Moreover, in data set [2], the solubility at 24 h came out at 40000 µg/mL (≈ 370000 µM). In data set [2] (water), the “solubility in per cent” value was found to be 4%. Further, the “CV75 (concentration affording 75% cell viability), 1 × CV75” value in the data set with THP-1 cells [1] (THP-1 cells, 24 h) was 65.4 µg/mL. The “release of IL-8” value in the data set with IL-8 is given as “higher concentrations”. Further, the “CD54 and CD86 marker expression against OECD cut-off” value (from here on “CD54 and CD86 marker expression”) in the data set with THP-1 cells [4] is “above the recommended threshold”. The “marker induction, times lower than DNCB” value in the data set on THP-1 cells [4] (human, 24 h) is listed as 1.6.
Regarding `Cc1cc(N)ccc1N` [PTD, 2-methylbenzene-1,4-diamine], in the data set on CD86, the “EC150 for CD86 (lowest concentration inducing % RFI of 150)” value was found to be 34.3 µg/mL. For the same compound, in the data set on HaCaT cells, the IC50 is 73.1 µM. Further, in the data set on CD54, the “EC200 for CD54 (lowest concentration inducing % RFI of 200)” value came to 35.35 µg/mL. Further, in data set [3], the “Recovered in donor compartment” value is recorded as 95 % of applied compound dose, the Recovered in skin is 2.1 % of applied compound dose, the “Recovered in skin outside diffusion area” value is 0.0077 % of applied compound dose and the “Recovered in skin swabs” value is 0.48 % of applied compound dose. Further, in data set [3], the “Recovered on parafilm and in washes” value is given as 0.68 % of applied compound dose; the “Total recovery (mean percentage parent compound recovery)” value is 99 ± 0.33%. In addition, the “release of IL-1α” value in the data set with IL-1α was “higher concentrations”. Further, the solubility at 24 h in [2] came to 2500 µg/mL (≈ 20500 µM). Further, the “CV75 (concentration affording 75% cell viability), 1 × CV75” value in the data set with THP-1 cells [1] (human) was 43.4 µg/mL. In the data set with IL-8, the “release of IL-8” value is recorded as “higher concentrations”. The “CD54 and CD86 marker expression” value in the data set with THP-1 cells [4] is given as “above the recommended threshold”.
Regarding `CCCCCCCCCCCCOS(=O)(=O)[O-].[Na+]` [SLS, reference compound], the “CV75 (concentration affording 75% cell viability), 1 × CV75” value in the data set on THP-1 cells [1] (THP-1 cells, 24 h) turned out to be 56.0 µg/mL. For the same compound, in the data set on THP-1 cells [4], the “CD54 and CD86 marker expression” value was “did not express markers”.
